In PubChem BioAssay AID2060343 (Molecular Pharmacology Branch, DTP, NCI, 2025):

Tested on: 138582-337-R-J1-PDC spheroids with HUVEC/MSC, viability
Experiment: Anticancer human tumor 138582-337-R-J1-PDC patient-derived Merkel cell tumor cell line growth inhibition [IpAb]
Conditions: for IC50: curve of first compound; for viability, T/C: stronger effect = lower value
Excerpt: Combinatorial screen of targeted agents with ipatasertib and abemaciclib in multi-cell type tumor spheroids
A high-throughput screen of multi-cell type tumor spheroids was designed to identify active combinations of targeted small molecules and ipatasertib or abemaciclib. Complex spheroids include a stromal component modeled by human endothelial cells (HUVEC) and fibroblasts modeled by human mesenchymal stem cells (MSCs). The concentration ranges selected for each drug and investigational agent were based upon clinically achievable concentrations if the clinical Cmax of the agent was known.
Compounds. The drugs and investigational agents: ipatasertib (NSC767898), abemaciclib(NSC768073), selumetinib (NSC741078), trametinib (758246), adavosertib (NSC754352), everolimus (NSC733504), sapanisertib (NSC764658), vemurafenib (NSC761431), venetoclax (NSC766270), copanlisib (NSC809693), apelisib (NSC765974), palbociblib (NSC758247), vemurafenib (NSC761431), dabrafenib (NSC764134), ravoxertinib (NSC781343), BMS-387032 (NSC767048), sotorasib (NSC818433), talazoparib (NSC767125) and afursertib (NSC778305), were obtained from the National Cancer Institute (NCI) Developmental Therapeutics Program Chemical Repository. The FDA-approved anticancer drug set is available from the NCI Developmental Therapeutics Program. […] The stock solutions were prepared in dimethyl sulfoxide (DMSO, Sigma-Aldrich, St. Louis, MO, cat. D2650) at 800-fold the tested concentration and stored at -70 degrees C prior to their use. All drugs and investigational agents were tested over a range starting from a high concentration at or near the clinical Cmax and decreasing in half-log increments. If the clinical Cmax for an agent had not been determined, the highest concentration tested was 10 microM.
NCI60 Cell Culture. NCI60 cell lines were obtained from the NCI Developmental Therapeutics Program Tumor Repository. For each lot of cells, the Repository performed Applied Biosystems AmpFLSTR Identifiler testing with PCR amplification to confirm consistency with the published Identifier STR profile for each cell line. Cells were kept in continuous culture for no more than 20 passages. The optimal seeding densities for each of the cell lines at each time point assessed were determined prior to performing the concentration response studies. Briefly, the NCI60 human tumor lines were grown as monolayers in RPMI 1640 medium supplemented with 10% FBS and 2 mmol/L L-glutamine.
An additional 9 lines were from the NCI60 cell line panel including MDA-MB-231 breast carcinoma, MDA-MB-468 breast carcinoma, MCF7 breast carcinoma, Hs578T breast carcinoma, MALME-3M melanoma, SK-MEL-2 melanoma, SK-OV-3 ovarian carcinoma, DU-145 prostate carcinoma, PC-3 prostate carcinoma, all cell lines along with major genetic alterations are listed on Table 2. Pooled donor human umbilical vein endothelial cells (HUVEC, Lonza, cat. CC-2519) and human mesenchymal stem cells (hMSC, Lonza, cat. PT-2501) were purchased from Lonza (Walkersville, MD).
PDMR cell lines were grown in complete medium (DC medium): Dulbecco's modified Eagle's medium (DMEM)/F12 supplemented with 5% fetal bovine serum (FBS), 2 mM L-glutamine, 100 U/mL penicillin and 100 µg/ml streptomycin, 0.4 µg/ml hydrocortisone, 10 ng/ml epidermal growth factor (EGF) recombinant human protein, 24 µg/mL adenine, and 0.1 mg/mL primocin. During culture from frozen stock vials, PDMR cells were cultured in the same medium containing 10 µM Y-27632 (see Table 3). The PDCs were cultured in complete DMEM/F12 media without 10 microM Y-27632 dihydrochloride for at least two passages prior to the screen. The pooled donor HUVEC and hMSC were cultured in endothelial cell growth medium 2 (PromoCell, Heidelberg, Germany, cat. C-22011) and mesenchymal stem cell growth medium 2 (PromoCell, cat. C-28009), respectively. For all experiments, HUVEC and hMSC were used at passages </=5.
[…]

[1] = second compound 0.1 µM, first compound 0.0316 µM
[2] = second compound 0.1 µM, first compound 0.1 µM
[3] = second compound 0.316 µM, first compound 0.0316 µM
[4] = second compound 0.316 µM, first compound 0.1 µM
[5] = second compound 1 µM, first compound 0.0316 µM
[6] = second compound 1 µM, first compound 0.1 µM
[7] = second compound 3.16 µM, first compound 0.0316 µM
[8] = second compound 3.16 µM, first compound 0.1 µM
[9] = second compound 10 µM, first compound 0.0316 µM
[10] = second compound 10 µM, first compound 0.1 µM
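Also: spheroids exposed to compounds for seven days.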
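For viability, T/C in this document: 100% = DMSO vehicle control viability.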

SMILES: C=CCn1c(=O)c2cnc(Nc3ccc(N4CCN(C)CC4)cc3)nc2n1-c1cccc(C(C)(C)O)n1 + CC(C)NCC(C(=O)N1CCN(c2ncnc3c2C(C)CC3O)CC1)c1ccc(Cl)cc1
- IC50 (second compound 0.1 µM): > 10000 nM
- IC50 (second compound 0.316 µM): > 10000 nM
- IC50 (second compound 1 µM): > 10000 nM
- IC50 (second compound 3.16 µM): < 31.6 nM
- IC50 (second compound 10 µM): < 31.6 nM
- viability, T/C [1]: 96.8%
- viability, T/C [2]: 95.6%
- viability, T/C (second compound 0.1 µM, first compound 0.316 µM): 78%
- viability, T/C (second compound 0.1 µM, first compound 1 µM): 99.6%
- viability, T/C (second compound 0.1 µM, first compound 3.16 µM): 99.1%
- viability, T/C (second compound 0.1 µM, first compound 10 µM): 134%
- viability, T/C [3]: 85.5%
- viability, T/C [4]: 73.6%
- viability, T/C (second compound 0.316 µM, first compound 0.316 µM): 74.7%
- viability, T/C (second compound 0.316 µM, first compound 1 µM): 71.4%
- viability, T/C (second compound 0.316 µM, first compound 3.16 µM): 94.2%
- viability, T/C (second compound 0.316 µM, first compound 10 µM): 117%
- viability, T/C [5]: 66.7%
- viability, T/C [6]: 73.5%
- viability, T/C (second compound 1 µM, first compound 0.316 µM): 54.5%
- viability, T/C (second compound 1 µM, first compound 1 µM): 63.6%
- viability, T/C (second compound 1 µM, first compound 3.16 µM): 83.4%
- viability, T/C (second compound 1 µM, first compound 10 µM): 89.1%
- viability, T/C [7]: 58.1%
- viability, T/C [8]: 53.6%
- viability, T/C (second compound 3.16 µM, first compound 0.316 µM): 38.9%
- viability, T/C (second compound 3.16 µM, first compound 1 µM): 46.6%
- viability, T/C (second compound 3.16 µM, first compound 3.16 µM): 74.8%
- viability, T/C (second compound 3.16 µM, first compound 10 µM): 73.8%
- viability, T/C [9]: 54.6%
- viability, T/C [10]: 41.5%
- viability, T/C (second compound 10 µM, first compound 0.316 µM): 33.9%
- viability, T/C (second compound 10 µM, first compound 1 µM): 42%
- viability, T/C (second compound 10 µM, first compound 3.16 µM): 60.1%
- viability, T/C (second compound 10 µM, first compound 10 µM): 55.5%

SMILES: CC(C)n1nc(-c2ccc3oc(N)nc3c2)c2c(N)ncnc21 + CC(C)NCC(C(=O)N1CCN(c2ncnc3c2C(C)CC3O)CC1)c1ccc(Cl)cc1
- IC50 (second compound 0.1 µM): 22.4 nM
- IC50 (second compound 0.316 µM): 7.57 nM
- IC50 (second compound 1 µM): 1.97 nM
- IC50 (second compound 3.16 µM): 0.362 nM
- IC50 (second compound 10 µM): < 0.316 nM
- viability, T/C (second compound 0.1 µM, first compound 0.000316 µM): 96.3%
- viability, T/C (second compound 0.1 µM, first compound 0.001 µM): 89.2%
- viability, T/C (second compound 0.1 µM, first compound 0.00316 µM): 70%
- viability, T/C (second compound 0.1 µM, first compound 0.01 µM): 64.1%
- viability, T/C [1]: 43.8%
- viability, T/C [2]: 31.9%
- viability, T/C (second compound 0.316 µM, first compound 0.000316 µM): 67.8%
- viability, T/C (second compound 0.316 µM, first compound 0.001 µM): 66%
- viability, T/C (second compound 0.316 µM, first compound 0.00316 µM): 61.8%
- viability, T/C (second compound 0.316 µM, first compound 0.01 µM): 44.1%
- viability, T/C [3]: 37%
- viability, T/C [4]: 26.8%
- viability, T/C (second compound 1 µM, first compound 0.000316 µM): 63.1%
- viability, T/C (second compound 1 µM, first compound 0.001 µM): 54.1%
- viability, T/C (second compound 1 µM, first compound 0.00316 µM): 47.5%
- viability, T/C (second compound 1 µM, first compound 0.01 µM): 36.2%
- viability, T/C [5]: 27.5%
- viability, T/C [6]: 22%
- viability, T/C (second compound 3.16 µM, first compound 0.000316 µM): 50%
- viability, T/C (second compound 3.16 µM, first compound 0.001 µM): 47.3%
- viability, T/C (second compound 3.16 µM, first compound 0.00316 µM): 36%
- viability, T/C (second compound 3.16 µM, first compound 0.01 µM): 27.3%
- viability, T/C [7]: 19.6%
- viability, T/C [8]: 17.5%
- viability, T/C (second compound 10 µM, first compound 0.000316 µM): 40.5%
- viability, T/C (second compound 10 µM, first compound 0.001 µM): 35.9%
- viability, T/C (second compound 10 µM, first compound 0.00316 µM): 31.6%
- viability, T/C (second compound 10 µM, first compound 0.01 µM): 21.8%
- viability, T/C [9]: 14.4%
- viability, T/C [10]: 12.3%
